The source of these data is patent publication US20080119462A1, “METHOD FOR TREATING VASCULAR HYPERPERMEABLE DISEASE” (Sucampo AG, priority 2003, published 2008).

Where only a bound is given, the exact number is not on record here.

One test concerns the target T1, Human plasma SSAO (Homo sapiens, UniProt Q16853).
T1 construct: The enzyme suspension prepared from blood plasma was pre-incubated with Compound A; from tissue; host or cells: human blood plasma
T1 sequence (Q16853 27-763 limits assumed): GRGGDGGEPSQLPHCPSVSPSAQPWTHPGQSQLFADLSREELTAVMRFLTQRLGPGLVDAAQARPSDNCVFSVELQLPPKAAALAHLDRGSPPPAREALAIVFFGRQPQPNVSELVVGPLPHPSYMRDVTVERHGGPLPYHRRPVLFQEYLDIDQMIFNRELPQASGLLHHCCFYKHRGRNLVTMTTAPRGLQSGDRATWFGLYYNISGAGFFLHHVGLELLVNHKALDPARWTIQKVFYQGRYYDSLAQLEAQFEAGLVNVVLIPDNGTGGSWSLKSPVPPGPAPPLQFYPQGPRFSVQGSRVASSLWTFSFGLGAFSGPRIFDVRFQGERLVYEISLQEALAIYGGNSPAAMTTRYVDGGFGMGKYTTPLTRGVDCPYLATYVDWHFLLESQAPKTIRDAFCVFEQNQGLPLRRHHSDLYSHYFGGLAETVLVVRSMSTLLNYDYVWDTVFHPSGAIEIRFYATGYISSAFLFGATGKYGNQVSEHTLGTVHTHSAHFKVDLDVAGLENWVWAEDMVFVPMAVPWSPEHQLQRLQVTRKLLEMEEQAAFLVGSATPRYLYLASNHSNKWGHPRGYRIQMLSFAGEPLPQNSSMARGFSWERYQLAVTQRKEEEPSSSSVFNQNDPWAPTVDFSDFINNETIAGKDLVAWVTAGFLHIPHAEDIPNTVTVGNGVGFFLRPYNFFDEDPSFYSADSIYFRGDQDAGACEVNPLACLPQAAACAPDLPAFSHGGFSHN
The test can be described thus: Radiochemical-enzyme assay of VAP-1 enzyme (SSAO) activity with 14C-benzylamine, human plasma. It is filed as biochemical. As for the experimental part: (§1) VAP-1 enzyme (SSAO) activity in both human and rat plasma was determined by a radiochemical-enzyme assay using ^14C-benzylamine as artificial substrate. The enzyme suspension prepared from blood plasma was pre-incubated with Compound A in 96-well microplate at room temperature for 30 min. The enzyme suspension was then incubated with ^14C-benzylamine (2×10^−5 mol/l final concentration) in a final volume of 50 μl at 37° C. for 1 hour. The enzyme reaction was terminated by adding 2 mol/l (50 μl) citric acid. The oxidized products were directly extracted into a 200 μl toluene scintillator, and its radioactivity was measured by a scintillation spectrometer. Monoamine oxidase (MAO) and diamine oxidase (DAO, histaminase) activities were also determined by similar method using ^14C-phenylethylamine and ^14C-putrescine as substrate, respectively. Cloned DAO from cDNA libraries was used in human DAO assay. Inhibition activity was expressed as IC50 (μmol/l) value.

The next test addresses T2, Human platelet MAO (Homo sapiens, UniProt P27338).
T2 construct: human platelet MAO; from tissue; host or cells: human platelets
T2 sequence (P27338 1-520): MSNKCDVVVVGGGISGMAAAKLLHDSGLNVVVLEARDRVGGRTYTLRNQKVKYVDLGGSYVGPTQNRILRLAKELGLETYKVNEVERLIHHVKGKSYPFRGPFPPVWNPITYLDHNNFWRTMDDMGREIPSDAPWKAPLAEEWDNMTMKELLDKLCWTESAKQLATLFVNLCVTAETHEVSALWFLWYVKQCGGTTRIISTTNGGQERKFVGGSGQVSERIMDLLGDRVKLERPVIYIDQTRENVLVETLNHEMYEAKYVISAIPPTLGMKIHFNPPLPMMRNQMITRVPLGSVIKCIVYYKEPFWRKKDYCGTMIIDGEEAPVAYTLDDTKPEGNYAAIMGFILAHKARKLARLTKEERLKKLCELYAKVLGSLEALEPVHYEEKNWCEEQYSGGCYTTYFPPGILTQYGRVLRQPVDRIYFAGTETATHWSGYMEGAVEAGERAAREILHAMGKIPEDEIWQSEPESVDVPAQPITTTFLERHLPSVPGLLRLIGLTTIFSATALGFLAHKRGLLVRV
The test can be described thus: Monoamine oxidase (MAO) activity assay with 14C-phenylethylamine. It counts as biochemical. As for the experimental part:
as §1

A further test concerns the target T3, Cloned human DAO (Homo sapiens, UniProt P19801).
T3 construct: made in house
T3 sequence (P19801 20-751): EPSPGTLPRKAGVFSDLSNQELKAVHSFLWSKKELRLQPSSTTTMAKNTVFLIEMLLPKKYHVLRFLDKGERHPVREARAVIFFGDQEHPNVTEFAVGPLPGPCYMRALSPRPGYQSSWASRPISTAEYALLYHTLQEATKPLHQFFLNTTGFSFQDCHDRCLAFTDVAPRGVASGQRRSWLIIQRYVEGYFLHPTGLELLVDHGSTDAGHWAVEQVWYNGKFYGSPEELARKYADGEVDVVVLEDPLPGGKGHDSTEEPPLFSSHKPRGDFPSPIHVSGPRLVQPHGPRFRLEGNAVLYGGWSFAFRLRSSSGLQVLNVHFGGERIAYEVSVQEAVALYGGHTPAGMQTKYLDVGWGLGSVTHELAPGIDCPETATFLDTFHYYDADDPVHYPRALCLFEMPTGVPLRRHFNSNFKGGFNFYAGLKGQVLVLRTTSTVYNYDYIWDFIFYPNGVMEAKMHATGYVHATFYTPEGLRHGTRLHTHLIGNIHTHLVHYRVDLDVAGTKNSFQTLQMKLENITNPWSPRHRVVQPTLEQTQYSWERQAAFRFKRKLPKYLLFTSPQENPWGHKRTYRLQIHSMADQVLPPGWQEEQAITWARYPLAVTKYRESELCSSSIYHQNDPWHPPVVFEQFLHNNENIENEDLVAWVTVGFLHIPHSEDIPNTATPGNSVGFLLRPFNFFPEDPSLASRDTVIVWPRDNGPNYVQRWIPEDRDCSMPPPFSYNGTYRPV
Briefly: Diamine oxidase (DAO, histaminase) activity assay with 14C-putrescine. It counts as biochemical. On the procedure:
as §1

For the next test, the system named is diabetic rats. The test can be described thus: Ocular permeability in STZ diabetic rats (leakage of fluorescein into the vitreous). It is filed as in vivo, rat. Particulars: 10 mg/kg, s.c. u.i.d., daily from 2 weeks after STZ for 2 weeks, mean ± S.E.M., 10 rats. On the procedure:
Diabetes in rats was induced with an intraperitoneal (i.p.) injection of 65 mg/ml/kg of streptozotocin (STZ) in 2 mmol/l citrate buffer (pH 4.5) after a 20-h fast. At the same time control rats were injected with an equal volume of 2 mmol/l citrate buffer. Plasma glucose level was checked by a calorimetric method. At day 3 of STZ treatment, the rats were diagnosed with diabetes showing a plasma glucose level of 350 mg/dl.
The treatment of Compound A was given daily from 2 weeks after STZ treatment for 2 weeks. At 24 hrs after final treatment of Compound A, the vascular permeability in oculus was investigated based on the leakage of dye into the vitreous 30 min after intravenous injection of fluorescein solution (40 mg/ml/kg). Permeability was expressed as vitreous/plasma ratio of fluorescein concentration measured by a fluorophotometer. At the same time, the plasma SSAO activity was checked by the radiochemical-enzyme assay using ^14C-benzylamine (2×10^−5 mol/l final concentration) as substrate.
In the same manner as in Example 2, the effect of various VAP-1 inhibitors on ocular permeability was determined in diabetic rats.

Take `CC(=O)Nc1nc(CCc2ccc(NC(=N)N)cc2)cs1` [Compound A, N-{4-[2-(4-{[amino(imino)methyl]amino}phenyl)ethyl]-1,3-thiazol-2-yl}acetamide]: at Human plasma SSAO, the “Inhibition of the enzyme activity of human plasma SSAO (in words)” value is recorded as “completely inhibited”. The 50% inhibitory concentration (IC50) – broadly, the point on the concentration scale where inhibition reaches its midpoint – at Human plasma SSAO (30 min pre-incubation, 14C-benzylamine 2×10^−5 mol/l, 37° C., 1 hour, read-out: Inhibitory effect (IC50 values) Human plasma SSAO) is 0.15 µM; on Human platelet MAO (14C-phenylethylamine as substrate, read-out: Inhibitory effect (IC50 values) Human platelet MAO) it was > 100 µM; on Cloned human DAO (14C-putrescine as substrate, read-out: Inhibitory effect (IC50 values) Cloned human DAO), > 100 µM. Also, the “Inhibition of the enzyme activity of human platelet MAO (in words)” value on Human platelet MAO is “not”. Further, the “Inhibition of the enzyme activity of cloned DAO (in words)” value on Cloned human DAO is recorded as “not”. In addition, the “Vitreous/Plasma Ratio of Fluorescein Concentration” value with diabetic rats was 5.39 ± 0.73 ×10^−3.
